What was measured:
CHO-K1 cells = assay: Cellular viability assay (MTT assay, resazurin readout); format: cell-based; conditions: 10 µM and below, after 24 h
Method: For MTT assays in presence of activators, CHO-K1 cells were incubated in Ham's F-12 medium containing 10 % fetal bovine serum and 1.0 % penicillin streptomycin at 37 °C in a 5 % CO2 for 24 hours. CHO-K1 cells were dispersed in a 96-well flat bottom tissue culture treated plates (Eppendorf) at density of 5×10^3 cells/well (per 100 µL) and incubated in Ham's F-12 containing 10 % (v/v) fetal bovine serum at 37 °C in a 5 % CO2 incubator for 12 h to allow cell adhesion. Then, cells were incubated with POM, B12Br12^2-, or PyBu (10 µM, 50 µM, 100 µM) for another 24 h. After this incubation time, 20 µL resazurin solution (0.15 mg/mL) was added to cells and incubated for another 3 h. Finally, the plates were read at λem = 590 nm (λex = 560 nm) using a JASCO fluorometer FP-8500.
The cell viability was evaluated by the following equation: Cells viability = (FIsample −FIblank)/(FIcontrol −FIblank) × 100% [formula]
Where, FIsample is the fluorescence intensity of cells incubated with different compounds, FIblank is the fluorescence intensity of medium, and FIcontrol is the fluorescence intensity of cells in absence of any compound.

polyArg = assay: Isothermal titration calorimetry, POM into polyArg; format: binding; conditions: 10 mM Mes, pH 5.5, 298.15 K
Method: (§1) All experiments were performed with a VP-ITC MicroCalorimeter from MicroCal, Int,. at atmospheric pressure and 298.15 K. Solutions were degassed and thermostatic prior the titration experiments in a ThermoVac accessory. A constant volume of POM ([PVW11]^4- or [SiMoW11]^4-) (10 µL per injection) was injected into the oligopeptide solution (heptaArg, protamine, polyArg or heptaLys) in 10 mM Mes, pH 5.5 to determine the apparent binding affinity of [PVW11]^4- and [SiMoW11]^4- with the oligopeptides. Dilution heats were determined by titration of the POM into buffer and subtracted from the reaction heat. The neat reaction heat was fitted with Origin 7.0 software by using the "one-set-of-sites" model to obtain the complex stability constant (Ka) and molar reaction enthalpy (ΔH°). The free energy (ΔG°) and entropy changes (ΔS°) were obtained according to the relation: ΔG° = - R TInKa = ΔH°-TΔS°.

heptaArg = assay: Isothermal titration calorimetry, POM into heptaArg; format: binding; conditions: 10 mM Mes, pH 5.5, 298.15 K
Method: as §1

[1] = Transport experiments in CF-loaded anionic vesicles; format: biochemical; conditions: DMPE/DPPG/CHOL (anionic), 13 µM phospholipids, 10 µM heptaArg
Method: Anionic vesicles in neutral media: Anionic vesicles were prepared analogously except for the lipid composition, DMPE/DPPG/CHOL (4.4/10.4/2.6 mg, 1/2/1 molar ratio) in a 1:1 mixture of CHCl3 and MeOH (1mL), the hydration (60 mins) and extrusion were performed at 55 °C, and the employed buffers were 100 mM CF, 10 mM Tris, pH 7.4 and 10 mM Tris, 140 mM NaCl, pH 7.4 for rehydration and elution, respectively.
Vesicles stock solutions (5-10 µL) were diluted with the corresponding buffer in a disposable plastic cuvette and gently stirred (total volume 2000 µL, final lipid concentration 13 µM). […] Fluorescence intensities were normalized to fractional emission as: I(t) = (It −I0)/(I∞ −I0) [formula]
Where I0 = It before POM addition and […] = I∞ after lysis. For Hill analysis, It before lysis was defined as transport activity, Y, and plotted against POM concentration, c, and fitted to the Hill equation (2), to afford the activity in absence of POM, Y0, the maximal activity, Ymax, the concentration needed to achieve 50 % of maximal activity, EC50, and the Hill coefficient, n. Y = Y0 + (Ymax −Y0)/(1 + (((EC50)/(c)))^n) [formula]
In the transport measurements, where different carriers (POMs) are tested with the same cargo, the activator efficiency (E) is determined by their capacity to transport the impermeable cargo to the intravesicular region and is characterized by Ymax, its maximal activity, and EC50, the effective activator concentration. An ideal carrier reaches high Ymax at low EC50. To count both factors, the activator efficiency is defined as: E = Ymax (pEC50)/(f) [formula] were pEC50 is the negative logarithm of the EC50, and fa scaling factor, which was set to 20.6 to calibrate the highest (previously known) activation efficiency, E, as 10.

protamine = assay: Isothermal titration calorimetry, POM into protamine; format: binding; conditions: 10 mM Mes, pH 5.5, 298.15 K
Method: as §1

[2] = system: oligopeptide (heptaArg, protamine, polyArg or heptaLys); assay: Isothermal titration calorimetry, POM-cargo interaction (summary statement); format: binding; conditions: ITC, POM and cargos
Method: as §1
To affect membrane transport, any carrier needs to display an affinity towards the cargo as well as towards the lipid bilayer. Accordingly, the interaction between [PVW11]^4- and [SiMoW11]^4- and the cargos was analyzed by isothermal titration calorimetry (ITC). […] The strong but reversible intermolecular interactions between the low-charged POMs and the cationic peptides established by ITC present an interesting finding. […]

| EC50 [1] [µM] | Substance | viability (CHO-K1 cells) [%] | PolyArg Ka/ 10^7 (polyArg) | HeptaArg Ka/ 10^7 (heptaArg) | E (activation efficiency) [1] | Ymax [1] [%] | Protamine Ka/ 10^7 (protamine) | supramolecular interactions with the cargos (affinity, order of magnitude) [2] |
| --- | --- | --- | --- | --- | --- | --- | --- | --- |
| 50 | K4[α-P^VV^VW^VI11O40]·4H2O [[PVW11]^4-] | ~80 | 3.5 ± 0.6 10^7 M-1 | 5.7 ± 0.7 10^7 M-1 | 2.8 | 45 | 25 ± 9 10^7 M-1 | ~10^7 M^-1 |
| 60 | K4[α-Si^IVMo^VIW^VI11O40]·24H2O [[SiMoW11]^4-] | ~80 | 1.6 ± 0.2 10^7 M-1 | 0.6 10^7 M-1 | 3.6 | 61 | 1.7 ± 0.3 10^7 M-1 | ~10^7 M^-1 |

From patent publication EP4483904A1, “POLYOXOMETALATES AS MEMBRANE CARRIERS” (Universität Wien, priority 2023, dated 2025)
